± gives the expanded uncertainty stated by the source.
Key:
[1] = for viscosity / mass density: 101 kPa; for viscosity / mass density / electrical conductivity: Liquid; for viscosity: Falling or rolling sphere viscometry; for mass density: Vibrating tube method; for electrical conductivity: 101.33 kPa, Alternating current cell with electrodes; for Normal melting temperature: DTA
[2] = xn = mol fraction of the nth substance listed; details: 101 kPa, Liquid, x1 = 1; for viscosity: Falling or rolling sphere viscometry; for mass density: Vibrating tube method

SMILES | viscosity ([1]; 293.15 K) | mass density ([1]; 293.15 K) | viscosity ([1]; 298.15 K) | mass density ([1]; 298.15 K) | viscosity ([1]; 303.15 K) | mass density ([1]; 303.15 K) | viscosity ([1]; 313.15 K) | mass density ([1]; 313.15 K) | viscosity ([1]; 323.15 K) | mass density ([1]; 323.15 K) | viscosity ([1]; 333.15 K) | mass density ([1]; 333.15 K) | viscosity ([2]; 293.15 K) | mass density ([2]; 293.15 K) | viscosity ([2]; 298.15 K) | mass density ([2]; 298.15 K) | viscosity ([2]; 303.15 K) | mass density ([2]; 303.15 K) | viscosity ([2]; 313.15 K) | mass density ([2]; 313.15 K) | further results
CCCC[N+]1(C)CCCC1.O=S(=O)([N-]S(=O)(=O)C(F)(F)F)C(F)(F)F | 98.72 ± 2.4 mPa·s | 1399.8 ± 2.8 kg/m3 | 77.66 ± 1.3 mPa·s | 1395.2 ± 2.8 kg/m3 | 62.29 ± 0.6 mPa·s | 1390.7 ± 2.8 kg/m3 | 41.87 ± 0.42 mPa·s | 1381.7 ± 2.8 kg/m3 | 29.61 ± 0.29 mPa·s | 1372.8 ± 2.8 kg/m3 | 21.82 ± 0.22 mPa·s | 1363.8 ± 2.8 kg/m3 |  |  |  |  |  |  |  |  | electrical conductivity ([1]; 293.4 K): 0.22 ± 0.006 S/m; electrical conductivity ([1]; 296.1 K): 0.249 ± 0.006 S/m; electrical conductivity ([1]; 299.3 K): 0.285 ± 0.008 S/m; electrical conductivity ([1]; 303.3 K): 0.334 ± 0.008 S/m; electrical conductivity ([1]; 309.3 K): 0.419 ± 0.01 S/m; electrical conductivity ([1]; 313.2 K): 0.481 ± 0.012 S/m; electrical conductivity ([1]; 320 K): 0.6 ± 0.014 S/m; electrical conductivity ([1]; 323.2 K): 0.66 ± 0.016 S/m; electrical conductivity ([1]; 333.5 K): 0.88 ± 0.02 S/m; Normal melting temperature ([1]; Metastable crystal): -20 ± 2 °C
CCCC[N+]1(C)CCCC1.O=S(=O)([N-]S(=O)(=O)C(F)(F)F)C(F)(F)F + CCCC#N |  |  |  |  |  |  |  |  |  |  |  |  | 98.72 ± 6.3 mPa·s | 1399.8 ± 2.8 kg/m3 | 77.66 ± 4.8 mPa·s | 1395.2 ± 2.8 kg/m3 | 62.29 ± 3.8 mPa·s | 1390.7 ± 2.8 kg/m3 | 41.87 ± 2.5 mPa·s | 1381.7 ± 2.8 kg/m3 | viscosity ([2]; 323.15 K): 29.61 ± 1.8 mPa·s; mass density ([2]; 323.15 K): 1372.8 ± 2.8 kg/m3; viscosity ([2]; 333.15 K): 21.82 ± 1.3 mPa·s; mass density ([2]; 333.15 K): 1363.8 ± 2.8 kg/m3
CCCC[N+]1(C)CCCC1.O=S(=O)([N-]S(=O)(=O)C(F)(F)F)C(F)(F)F + N#CCCCC#N |  |  |  |  |  |  |  |  |  |  |  |  | 98.72 ± 6.3 mPa·s | 1399.8 ± 2.8 kg/m3 | 77.66 ± 4.8 mPa·s | 1395.2 ± 2.8 kg/m3 | 62.29 ± 3.8 mPa·s | 1390.7 ± 2.8 kg/m3 | 41.87 ± 2.5 mPa·s | 1381.7 ± 2.8 kg/m3 | viscosity ([2]; 323.15 K): 29.61 ± 1.8 mPa·s; mass density ([2]; 323.15 K): 1372.8 ± 2.8 kg/m3; viscosity ([2]; 333.15 K): 21.82 ± 1.3 mPa·s; mass density ([2]; 333.15 K): 1363.8 ± 2.8 kg/m3
CCCC[N+]1(C)CCCC1.O=S(=O)([N-]S(=O)(=O)C(F)(F)F)C(F)(F)F + N#CCCCCC#N |  |  |  |  |  |  |  |  |  |  |  |  | 98.72 ± 6.3 mPa·s | 1399.8 ± 2.8 kg/m3 | 77.66 ± 4.8 mPa·s | 1395.2 ± 2.8 kg/m3 | 62.29 ± 3.8 mPa·s | 1390.7 ± 2.8 kg/m3 | 41.87 ± 2.5 mPa·s | 1381.7 ± 2.8 kg/m3 | viscosity ([2]; 323.15 K): 29.61 ± 1.8 mPa·s; mass density ([2]; 323.15 K): 1372.8 ± 2.8 kg/m3; viscosity ([2]; 333.15 K): 21.82 ± 1.3 mPa·s; mass density ([2]; 333.15 K): 1363.8 ± 2.8 kg/m3
CCCC#N [butanenitrile] | 0.88 ± 0.05 mPa·s | 791.1 ± 1.6 kg/m3 | 0.86 ± 0.05 mPa·s | 786.4 ± 1.6 kg/m3 | 0.84 ± 0.05 mPa·s | 781.8 ± 1.6 kg/m3 | 0.81 ± 0.05 mPa·s | 772.4 ± 1.6 kg/m3 | 0.78 ± 0.05 mPa·s | 763 ± 1.5 kg/m3 | 0.75 ± 0.05 mPa·s | 753.5 ± 1.5 kg/m3 |  |  |  |  |  |  |  |  | 
N#CCCCCC#N [hexanedinitrile] | 7.17 ± 0.44 mPa·s | 962.3 ± 1.9 kg/m3 | 6.31 ± 0.38 mPa·s | 958.6 ± 1.9 kg/m3 | 5.53 ± 0.34 mPa·s | 954.8 ± 1.9 kg/m3 | 4.54 ± 0.28 mPa·s | 947.2 ± 1.9 kg/m3 | 3.73 ± 0.23 mPa·s | 939.8 ± 1.9 kg/m3 | 3.02 ± 0.18 mPa·s | 932.3 ± 1.9 kg/m3 |  |  |  |  |  |  |  |  | Normal melting temperature ([1]; Crystal): 6.2 ± 2 °C
N#CCCCC#N [pentanedinitrile] | 6.97 ± 0.07 mPa·s | 987 ± 2 kg/m3 | 6.12 ± 0.06 mPa·s | 983.1 ± 2 kg/m3 | 5.39 ± 0.05 mPa·s | 979.1 ± 2 kg/m3 | 4.25 ± 0.04 mPa·s | 971.2 ± 2 kg/m3 | 3.47 ± 0.03 mPa·s | 963.4 ± 1.9 kg/m3 | 2.88 ± 0.03 mPa·s | 955.6 ± 1.9 kg/m3 |  |  |  |  |  |  |  |  | 

Reference: the NIST ThermoML archive (doi:10.1021/acs.jced.6b00718)
